Experimental data from US6372726B1, “Methods of cancer treatment using NAALADase inhibitors” (Guilford Pharmaceuticals Inc., priority 1996, dated 2002).
Read-outs that look alike come from different tables or passages of the source.

Columns and labels:
NAALADase = NAALADase (UniProt P70627); assay: In vitro assay of NAALADase activity ([3H]Glu liberated from [3H]NAAG, synaptosomal protein); format: biochemical; settings: for NAALADase inhibiting activity (in words): comparison of Table III(a) compounds
Method: The following compounds were tested for in vitro inhibition of NAALADase activity.
Substrate and product were resolved by anion-exchange liquid chromatography. […] Quisqualate (100 μM) was included in parallel assay tubes to confirm the specificity of the measurements.

[1] = tested on: R3327 rat prostate tumors (Dunning R3327-G prostate cancer cells); assay: In vivo rat Dunning R3327 model
Method: Referring now to FIGS. 5 and 6, Dunning R3327-G prostate cancer cells were injected subcutaneously into both flanks of syngeneic male rats. […] In the second study, the anti-tumor growth activity of 2-[[phenylmethyl)hydroxyphosphinyl]methyl]pentanedioic acid was tested following daily intra-tumoral injections of the drug (0.1,1,10,100 μg) after the tumor reached an initial volume of 80-290 mm^3. Tumor volumes were subsequently monitored for 42 days after the beginning of drug treatment.
R3327-G is a cell line derived from an androgen-sensitive papillary adenocarcinoma derived from a spontaneously forming tumor in the rat prostate. […]
After the animals were released from quarantine, the rats were injected subcutaneously in both flanks with 1×10^7 R3327-G cells (0.1-ml injection volume). Tumor dimensions and body weight were measured twice weekly. Vernier calipers were used to measure tumors in three planes, and tumor volume (V) was calculated as follows: V=π(x×y×z)/6, where x, y, and z were the tumor measurements minus skin thickness. […]
The tumors were measured twice weekly. The mean tumor volume for each group was calculated for each time point. Comparisons between groups at specific times were made using an unpaired, two-tailed t-test, and the results were analyzed using analyzed of variance (ANOVA). […]

[2] = tested on: LNCAP cells (a prostate cancer cell line); assay: In vitro cancer assay: 3H-thymidine incorporation in LNCAP cells; format: cell-based, human; settings: for 3H-Thymidine Incorporation (dpm/well): LNCAP cells, 7 days
Method: On the 7th day, the cells are pulsed with 3H-thymidine for 4 hours, harvested and measured for radioactivity. Values represent means +/−SEM of 6 separate cell wells for each treatment. All experiments are performed at least twice.
Cells are grown in RPMI-1640 media supplemented with 10% heat-inactivated fetal calf serum, 2 mM-glutamine, 100 units/ml penicillin, and 100 μg/ml streptomycin (Paragon) in a humidified incubator at 37° C. in a 5% CO2/95% O2 atmosphere.
The cells are suspended at 1×10^3 cells/ml in RPMI-1640 media and seeded into 24-well plates at 500 μl per well. […] On days 3, 5 and 7, media and drug are refreshed. On the 8th day following seeding, each well is pulsed with 1 μCi ^3H-thymidine (New England Nuclear) for 4 hours. Media is then removed and the wells washed 2 times with phosphate buffered saline (pH=7.4). […] 5 ml UltimaGold (Packard) scintillation cocktail is added and radioactivity is quantitated using a Beckman LS6001 scintillation counter.

mice = assay: In vivo toxicity of NAALADase inhibitors in mice; settings: doses of 1 to 500 mg/kg, observed 5 consecutive days
Text: The mice were subsequently observed two times per day for 5 consecutive days.

[3] = tested on: LNCAP human prostate tumors; assay: In vivo LNCaP tumor xenograft assay; set-up: species or system mice; settings: daily intratumoral injection (0.25 μg/day), six weeks, p=0.04
Method: Referring now to FIGS. 3 and 4, LNCaP human prostate cancer cells were injected subcutaneously into the right flank of male nude mice. […] The 2-(phosphonomethyl)pentanedioic acid polymer was changed two times per week. Tumor volumes were monitored for 42 days after the beginning of treatment.
LNCaP is a human prostate cancer cell line that was established in 1973 from a […] of a patient who had been treated with 5-FU, doxorubicin, methotrexate, and CTX in the 3 months before the cell line was initiated. This line is androgen receptor positive and has been used in screening anticancer drugs that are targeted as hormone antagonists. […]
After the animals were released from quarantine, the mice were injected subcutaneously in the right flank with 1×10^7 LNCaP cells in Matrigel™ (0.1-ml injection volume) Tumor dimensions and body weight were measured twice weekly. Vernier calipers were used to measure tumors in three planes, and tumor volume (V) was calculated as follows: V=π(x×y×z)/6, where x, y, and z were the tumor measurements minus skin thickness. […]
The tumor were measured twice weekly for at least 8 weeks after the first treatment. The mean tumor volume for each group was calculated for each time point. Comparisons between groups at specific times were made using an unpaired, two-tailed t-test, and the results were analyzed using analysis of variance (ANOVA). […]

[4] = Table III(c), read-out: Ki Value

CCCCP(=O)(O)CC(CCC(=O)O)C(=O)O (stereo not shown)
Ki (NAALADase; Table III(b), read-out: Ki): 148 nM

Cc1cccc(P(=O)(O)CC(CCC(=O)O)C(=O)O)c1 (stereo not shown)
Ki (NAALADase; Table III(b), read-out: Ki): 190 nM

O=C(O)CCC(CP(=O)(O)Cc1ccccc1F)C(=O)O (stereo not shown)
Ki (NAALADase; [4]): 175 nM

O=C(O)CCC(CP(=O)(O)Cc1c(F)c(F)c(F)c(F)c1F)C(=O)O (stereo not shown)
Ki (NAALADase; [4]): 38 nM

O=C(O)CCC(CP(=O)(O)O)C(=O)O (stereo not shown) [2-(phosphonomethyl)pentanedioic acid]
Tumor growth, FIG. 5 ([1]; daily subcutaneous injections 1, 3, 10 and 30 mg/kg, 84 days): tumor growth slowed
LNCAP cell proliferation (incorporation of [3H]thymidine), FIG. 2 ([2]; 7-day treatment, 100 pM to 10 nM): sharp dose-dependent decrease
3H-Thymidine Incorporation (dpm/well) ([2]; 10 pM): 3078 ± 1006 dpm/well
3H-Thymidine Incorporation (dpm/well) ([2]; 100 pM): 2062 ± 595 dpm/well
3H-Thymidine Incorporation (dpm/well) ([2]; 1 nM): 1001 ± 52 dpm/well
3H-Thymidine Incorporation (dpm/well) ([2]; 10 nM): 664 ± 366 dpm/well
Toxicological effect in mice (in words) (mice): non-toxic
Mean tumor volume versus control group, FIG. 3 [3]: statistically significant difference
Ki (NAALADase; Table III(a)): 0.275 ± 0.08 nM
NAALADase inhibiting activity (in words) (NAALADase): high level of NAALADase inhibiting activity
Ki (NAALADase; text restating Table III(a)): 0.27 nM
Potency relative to previously described inhibitors (NAALADase; times more potent): > 1000 times

O=C(O)CC(CP(=O)(O)O)C(=O)O (stereo not shown) [2-(phosphonomethyl)succinic acid, reference compound]
NAALADase inhibiting activity (in words) (NAALADase): much lower NAALADase inhibiting activity

O=C(O)CCC(CP(=O)(O)Cc1ccccc1)C(=O)O (stereo not shown) [2-[(benzylhydroxyphosphinyl)methyl]pentanedioic acid]
Mean tumor volume relative to start of treatment (V/Vo) versus control group, FIG. 6 ([1]; daily intra-tumoral injections of 1 μg, 2.5 weeks, p=0.02): statistically significant difference

O=C(O)CCC(CP(=O)(O)CCC(=O)O)C(=O)O (stereo not shown) [2-[[2-carboxyethyl)hydroxyphosphinyl]-methyl]pentanedioic acid)]
NAALADase inhibiting activity (in words) (NAALADase): lower NAALADase inhibiting activity
